Results on 20 compounds are retold here after patent US12071441B2, “10-(di(phenyl)methyl)-4-hydroxy-8,9,9A,10-tetrahydro-7H-pyrrolo[1′,2′:4,5]pyrazino[1,2-b]pyridazine-3,5-dione derivatives and related compounds as inhibitors of the orthomyxovirus replication for treating influenza” (Novartis AG, priority 2018, dated 2024).

What all share (assay): microbe, parasite or virus in culture
Holding throughout (assay type): cell-based

Assay [1] concerns influenza A virus minigenome (PB2, PB1, PA, NP; luciferase reporter) in 293T cells, RNP_CAL. As to conditions: HEK-293T, 48 h, read-out: RNP_CAL_EC50.
The test system of assay [2] is influenza A virus minigenome (PB2, PB1, PA, NP; luciferase reporter) in 293T cells, RNP_Hubei. The note with it: HEK-293T, 48 h.
In assay [3] the test system is influenza A virus minigenome (PB2, PB1, PA, NP; luciferase reporter) in 293T cells, RNP_Alaska. The note with it: HEK-293T, 48 h.

A value given as a limit tells only on which side of the number the result lay.

In the case of `CCOC(=O)OCOc1c2n(ncc1=O)[C@@H]([C@H](c1ccccc1)c1cccc(F)c1F)[C@H]1CCCN1C2=O` [Example 51, (((9aR,10S)-10-((R)-(2,3-difluorophenyl)(phenyl)methyl)-3,5-dioxo-3,5,8,9,9a,10-hexahydro-7H-pyrrolo[1′,2′:4,5]pyrazino[1,2-b]pyridazin-4-yl)oxy)methyl ethyl carbonate], the EC50 in assay [1], in assay [2] and in assay [3] was below 100 nM each time.
Take `CC(C)OC(=O)OCOc1c2n(ncc1=O)[C@@H]([C@H](c1ccccc1)c1cccc(F)c1F)[C@H]1CCCN1C2=O` [Example 52, (((9aR,10S)-10-((R)-(2,3-difluorophenyl)(phenyl)methyl)-3,5-dioxo-3,5,8,9,9a,10-hexahydro-7H-pyrrolo[1′,2′:4,5]pyrazino[1,2-b]pyridazin-4-yl)oxy)methyl isopropyl carbonate]: the EC50 in assay [1], in assay [2] and in assay [3] was below 100 nM each time.
In the case of `CCOC(=O)Oc1c2n(ncc1=O)[C@@H]([C@H](c1ccccc1)c1cccc(F)c1F)[C@H]1CCCN1C2=O` [Example 53, (9aR,10S)-10-((R)-(2,3-difluorophenyl)(phenyl)methyl)-3,5-dioxo-3,5,8,9,9a,10-hexahydro-7H-pyrrolo[1′,2′:4,5]pyrazino[1,2-b]pyridazin-4-yl ethyl carbonate], the EC50 in assay [1], in assay [2] and in assay [3] was below 100 nM throughout.
As to `CC(C)(C)OC(=O)OCOc1c2n(ncc1=O)[C@@H]([C@H](c1ccccc1)c1cccc(F)c1F)[C@H]1CCCN1C2=O` [Example 55, tert-butyl ((((9aR,10S)-10-((R)-(2,3-difluorophenyl)(phenyl)methyl)-3,5-dioxo-3,5,8,9,9a,10-hexahydro-7H-pyrrolo[1′,2′:4,5]pyrazino[1,2-b]pyridazin-4-yl)oxy)methyl) carbonate], the EC50 is 100 to 1000 nM in assay [1], below 100 nM in assay [2] and 100 to 1000 nM in assay [3].
On to `CCOC(=O)OC(C)Oc1c2n(ncc1=O)[C@@H]([C@H](c1ccccc1)c1cccc(F)c1F)[C@H]1CCCN1C2=O` (stereo partly drawn) [Example 56, 1-(((9aR,10S)-10-((R)-(2,3-difluorophenyl)(phenyl)methyl)-3,5-dioxo-3,5,8,9,9a,10-hexahydro-7H-pyrrolo[1′,2′:4,5]pyrazino[1,2-b]pyridazin-4-yl)oxy)ethyl ethyl carbonate], for which the EC50 in assay [1] was 100 to 1000 nM; in assay [2], below 100 nM; in assay [3] it was 100 to 1000 nM.
As for `CN(C)C(=O)OCOc1c2n(ncc1=O)[C@@H]([C@H](c1ccccc1)c1cccc(F)c1F)[C@H]1CCCN1C2=O` [Example 57, (((9aR,10S)-10-((R)-(2,3-difluorophenyl)(phenyl)methyl)-3,5-dioxo-3,5,8,9,9a,10-hexahydro-7H-pyrrolo[1′,2′:4,5]pyrazino[1,2-b]pyridazin-4-yl)oxy)methyl dimethylcarbamate], the EC50 in assay [1], in assay [2] and in assay [3] was below 100 nM throughout.
For `CC(=O)Oc1c2n(ncc1=O)[C@@H]([C@H](c1ccccc1)c1cccc(F)c1F)[C@H]1CCCN1C2=O` [Example 58, (9aR,10S)-10-((R)-(2,3-difluorophenyl)(phenyl)methyl)-3,5-dioxo-3,5,8,9,9a,10-hexahydro-7H-pyrrolo[1′,2′:4,5]pyrazino[1,2-b]pyridazin-4-yl acetate], the EC50 in assay [1], in assay [2] and in assay [3] was below 100 nM throughout.
Consider `CCC(=O)Oc1c2n(ncc1=O)[C@@H]([C@H](c1ccccc1)c1cccc(F)c1F)[C@H]1CCCN1C2=O` [Example 59, (9aR,10S)-10-((R)-(2,3-difluorophenyl)(phenyl)methyl)-3,5-dioxo-3,5,8,9,9a,10-hexahydro-7H-pyrrolo[1′,2′:4,5]pyrazino[1,2-b]pyridazin-4-yl propionate], for which the EC50 in assay [1], in assay [2] and in assay [3] was below 100 nM in each case.
On to `CC(C)CC(=O)Oc1c2n(ncc1=O)[C@@H]([C@H](c1ccccc1)c1cccc(F)c1F)[C@H]1CCCN1C2=O` [Example 60, (9aR,10S)-10-((R)-(2,3-difluorophenyl)(phenyl)methyl)-3,5-dioxo-3,5,8,9,9a,10-hexahydro-7H-pyrrolo[1′,2′:4,5]pyrazino[1,2-b]pyridazin-4-yl 3-methylbutanoate], for which the EC50 in assay [1], in assay [2] and in assay [3] was below 100 nM each time.
With `COCCC(=O)Oc1c2n(ncc1=O)[C@@H]([C@H](c1ccccc1)c1cccc(F)c1F)[C@H]1CCCN1C2=O` [Example 61, (9aR,10S)-10-((R)-(2,3-difluorophenyl)(phenyl)methyl)-3,5-dioxo-3,5,8,9,9a,10-hexahydro-7H-pyrrolo[1′,2′:4,5]pyrazino[1,2-b]pyridazin-4-yl 3-methoxypropanoate], the EC50 in assay [1], in assay [2] and in assay [3] was below 100 nM in each case.
Regarding `CC(C)(C)C(=O)Oc1c2n(ncc1=O)[C@@H]([C@H](c1ccccc1)c1cccc(F)c1F)[C@H]1CCCN1C2=O` [Example 62, (9aR,10S)-10-((R)-(2,3-difluorophenyl)(phenyl)methyl)-3,5-dioxo-3,5,8,9,9a,10-hexahydro-7H-pyrrolo[1′,2′:4,5]pyrazino[1,2-b]pyridazin-4-yl pivalate], the EC50 in assay [1], in assay [2] and in assay [3] was below 100 nM in each case.
For the compound `CC(C)(C)C(=O)OCOc1c2n(ncc1=O)[C@@H]([C@H](c1ccccc1)c1cccc(F)c1F)[C@H]1CCCN1C2=O` [Example 63, (((9aR,10S)-10-((R)-(2,3-difluorophenyl)(phenyl)methyl)-3,5-dioxo-3,5,8,9,9a,10-hexahydro-7H-pyrrolo[1′,2′:4,5]pyrazino[1,2-b]pyridazin-4-yl)oxy)methyl pivalate], the EC50 in assay [1], in assay [2] and in assay [3] was below 100 nM in each case.
Consider `CCN(CC)C(=O)OCOc1c2n(ncc1=O)[C@@H]([C@H](c1ccccc1)c1cccc(F)c1F)[C@H]1CCCN1C2=O` [Example 67, (((9aR,10S)-10-((R)-(2,3-difluorophenyl)(phenyl)methyl)-3,5-dioxo-3,5,8,9,9a,10-hexahydro-7H-pyrrolo[1′,2′:4,5]pyrazino[1,2-b]pyridazin-4-yl)oxy)methyl diethylcarbamate], for which the EC50 in assay [1], in assay [2] and in assay [3] was at least 1000 nM each time.
As to `CCN(C)C(=O)OCOc1c2n(ncc1=O)[C@@H]([C@H](c1ccccc1)c1cccc(F)c1F)[C@H]1CCCN1C2=O` [Example 68, (((9aR,10S)-10-((R)-(2,3-difluorophenyl)(phenyl)methyl)-3,5-dioxo-3,5,8,9,9a,10-hexahydro-7H-pyrrolo[1′,2′:4,5]pyrazino[1,2-b]pyridazin-4-yl)oxy)methyl ethyl(methyl)carbamate], the EC50 in assay [1], in assay [2] and in assay [3] was at least 1000 nM each time.
Consider `O=C(Oc1c2n(ncc1=O)[C@@H]([C@H](c1ccccc1)c1cccc(F)c1F)[C@H]1CCCN1C2=O)c1ccccc1` [Example 69, (9aR,10S)-10-((R)-(2,3-difluorophenyl)(phenyl)methyl)-3,5-dioxo-3,5,8,9,9a,10-hexahydro-7H-pyrrolo[1′,2′:4,5]pyrazino[1,2-b]pyridazin-4-yl benzoate], for which the EC50 in assay [1], in assay [2] and in assay [3] was below 100 nM in each case.
For the compound `COC(=O)c1ccccc1C(=O)Oc1c2n(ncc1=O)[C@@H]([C@H](c1ccccc1)c1cccc(F)c1F)[C@H]1CCCN1C2=O` [Example 70, (9aR,10S)-10-((R)-(2,3-difluorophenyl)(phenyl)methyl)-3,5-dioxo-3,5,8,9,9a,10-hexahydro-7H-pyrrolo[1′,2′:4,5]pyrazino[1,2-b]pyridazin-4-yl methyl phthalate], the EC50 in assay [1], in assay [2] and in assay [3] was below 100 nM in each case.
On to `CCN(CC)C(=O)Oc1c2n(ncc1=O)[C@@H]([C@H](c1ccccc1)c1cccc(F)c1F)[C@H]1CCCN1C2=O` [Example 71, (9aR,10S)-10-((R)-(2,3-difluorophenyl)(phenyl)methyl)-3,5-dioxo-3,5,8,9,9a,10-hexahydro-7H-pyrrolo[1′,2′:4,5]pyrazino[1,2-b]pyridazin-4-yl diethylcarbamate], for which the EC50 in assay [1], in assay [2] and in assay [3] was 100 to 1000 nM in each case.
As for `CC(C)CC(=O)OCOc1c2n(ncc1=O)[C@@H]([C@H](c1ccccc1)c1cccc(F)c1F)[C@H]1CCCN1C2=O` [Example 72, (((9aR,10S)-10-((R)-(2,3-difluorophenyl)(phenyl)methyl)-3,5-dioxo-3,5,8,9,9a,10-hexahydro-7H-pyrrolo[1′,2′:4,5]pyrazino[1,2-b]pyridazin-4-yl)oxy)methyl 3-methylbutanoate], the EC50 in assay [1], in assay [2] and in assay [3] was below 100 nM throughout.
Regarding `O=C(CC1CCOCC1)Oc1c2n(ncc1=O)[C@@H]([C@H](c1ccccc1)c1cccc(F)c1F)[C@H]1CCCN1C2=O` [Example 73, (9aR,10S)-10-((R)-(2,3-difluorophenyl)(phenyl)methyl)-3,5-dioxo-3,5,8,9,9a,10-hexahydro-7H-pyrrolo[1′,2′:4,5]pyrazino[1,2-b]pyridazin-4-yl 2-(tetrahydro-2H-pyran-4-yl)acetate], the EC50 in assay [1], in assay [2] and in assay [3] was below 100 nM in each case.
Take `O=C(Oc1c2n(ncc1=O)[C@@H]([C@H](c1ccccc1)c1cccc(F)c1F)[C@H]1CCCN1C2=O)OC1CCOCC1` [Example 74, (9aR,10S)-10-((R)-(2,3-difluorophenyl)(phenyl)methyl)-3,5-dioxo-3,5,8,9,9a,10-hexahydro-7H-pyrrolo[1′,2′:4,5]pyrazino[1,2-b]pyridazin-4-yl (tetrahydro-2H-pyran-4-yl) carbonate]: the EC50 in assay [1], in assay [2] and in assay [3] was below 100 nM in each case.
